Test results from BigSolDB 2.1.

Nc1cc(C(=O)O)ccc1C(=O)O
solubility (mole fraction)
Details | in ethanol | in isopentanol | in isopropanol | in methanol | in n-butanol | in n-propanol | in sec-butanol | in tert-butanol
303.15 K | 0.0349 | 0.00536 | 0.0211 | 0.0685 | 0.00721 | – | 0.00989 | 0.0216
303.25 K | – | – | – | – | – | 0.0137 | – | –
308.15 K | 0.0383 | 0.00583 | 0.0236 | – | 0.00854 | – | 0.0119 | 0.0237
308.75 K | – | – | – | – | – | 0.0165 | – | –
313.15 K | 0.0422 | 0.00643 | – | 0.0794 | 0.0098 | – | 0.0139 | 0.0268
313.75 K | – | – | – | – | – | 0.0193 | – | –
318.15 K | 0.0461 | – | 0.0293 | 0.0853 | 0.0112 | 0.0223 | – | 0.0293
323.15 K | 0.051 | 0.00764 | 0.0326 | 0.0917 | 0.0131 | 0.0256 | 0.0192 | 0.0315
328.15 K | 0.0552 | – | – | 0.0982 | – | 0.0293 | 0.0222 | 0.0351
333.15 K | 0.06 | 0.00895 | – | 0.105 | 0.0168 | 0.0334 | – | 0.0375
338.15 K | 0.0655 | 0.00972 | 0.0441 | 0.112 | 0.0189 | 0.0392 | 0.0297 | 0.0421
